Laboratory results as given in ChEMBL document CHEMBL5107981, “A comprehensive comparative study on LSD1 in different cancers and tumor specific LSD1 inhibitors” (Eur J Med Chem, 2022).

Tests used:
[1] = biological target: T1, Lysine-specific histone demethylase 1A (Homo sapiens, UniProt O60341)
Description: Inhibition of LSD1 (unknown origin)

[2] = Antiproliferative activity against human AML cell; format: functional, cell-based; details: Acute myeloid leukemic cell
[3] = Antiproliferative activity against human SCLC cell; format: functional, cell-based; details: Small cell lung cancer cell line
[4] = biological target: T1, Lysine-specific histone demethylase 1A; assay: Inhibition of recombinant LSD1 (unknown origin) incubated for 1 hr

## C/C(=N\NC(=O)c1cccc(S(=O)(=O)N2CCN(C)CC2)c1)c1cc(Cl)ccc1O
[1]
  IC50: 13 nM

## O=C(O)c1ccc(CN2CCC(CN[C@@H]3C[C@H]3c3ccccc3)CC2)cc1 [GSK2879552]
[2]
  IC50: 24 nM
[3]
  IC50: 24 nM

## Oc1ccc(/C=C/c2cc(O)cc(O)c2)cc1 [RESVERATROL]
[4]
  IC50: 15000 nM
